The text below walks through data of PubChem BioAssay (NCI).

Test systems include EKVX NSCLC; SF-539 CNS; TK-10 renal; HCT-15 colon; MOLT-4 leukemia; NCI/ADR-RES ovarian; HT29 colon; MDA-MB-435; T-47D breast; SK-MEL-2 melanoma.
Holding throughout (experiment): inhibition of tumour cell growth, NCI panel, 48 h

Molecules are shown by their SMILES.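 Interpolation was linear, between the two tested concentrations surrounding the appropriate level; five concentrations were tested over 48 hours in 96-well plates. The concentration for full growth arrest is given as TGI.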

`CC(C)=C[C@@H]1C[C@H](C)[C@H]2CC[C@H](C)[C@H]3C(=O)C(O)=C(C)C(=O)[C@]123`: the TGI in the test with EKVX NSCLC, in the test on SF-539 CNS, in the test with TK-10 renal, in the test with HCT-15 colon, in the test on MOLT-4 leukemia and with NCI/ADR-RES ovarian was above 100 µM each time. Moreover, the TGI in the test on HT29 colon and with MDA-MB-435 was above 100 µM throughout.

Take `CC(C)(C)OC(=O)NCCCCC1NC(=O)[C@@H]2Cc3c([nH]c4ccccc34)C(c3ccccc3)N2C1=O` (stereo partly specified): the TGI in the test with EKVX NSCLC was above 100 µM; with T-47D breast it was above 100 µM; in the test with TK-10 renal, above 100 µM; with HCT-15 colon, above 100 µM; in the test with MOLT-4 leukemia it was 60.2 µM; with SK-MEL-2 melanoma, 50.5 µM. Also, the TGI in the test on NCI/ADR-RES ovarian was above 100 µM; with HT29 colon it was 87.5 µM; in the test with MDA-MB-435, above 100 µM.

For `CC(=O)Oc1c(OC(C)C)cc(=O)n2ccsc12`, the TGI in the test with EKVX NSCLC, in the test on SF-539 CNS, with TK-10 renal, in the test on HCT-15 colon, in the test with MOLT-4 leukemia and in the test on SK-MEL-2 melanoma was above 100 µM in each case. The TGI with NCI/ADR-RES ovarian is above 100 µM; in the test with HT29 colon, above 100 µM; in the test with MDA-MB-435, 31 µM.

On to `O=CC12CCCN1CCC2`, for which the TGI in the test with EKVX NSCLC, in the test on T-47D breast, in the test with TK-10 renal, in the test on HCT-15 colon, in the test on MOLT-4 leukemia and in the test on SK-MEL-2 melanoma was above 100 µM throughout. Further, the TGI in the test on NCI/ADR-RES ovarian, in the test on HT29 colon and in the test with MDA-MB-435 was above 100 µM throughout.

In the case of `O=C1Cc2c([nH]c3c(Br)cccc23)-c2ccccc2N1`, the TGI was above 100 µM in the test on EKVX NSCLC; above 100 µM with SF-539 CNS; above 100 µM in the test with T-47D breast; above 100 µM with HCT-15 colon; 43.6 µM with MOLT-4 leukemia; above 100 µM with SK-MEL-2 melanoma. Also, the TGI in the test with NCI/ADR-RES ovarian, in the test on HT29 colon and in the test on MDA-MB-435 was above 100 µM in each case.

Regarding `CCCCCCCCCCCC1=C(O)C(=O)C=C(O)C1=O`, the TGI in the test with EKVX NSCLC was found to be 15.6 µM; with SF-539 CNS, 23.3 µM; in the test with HCT-15 colon, 49.3 µM; with MOLT-4 leukemia it was 44.1 µM; in the test with SK-MEL-2 melanoma, 12.5 µM; in the test on NCI/ADR-RES ovarian, 16.4 µM. Besides, in the test on HT29 colon, the TGI turned out to be 50.2 µM.

For `COc1ccc(Sc2ccccc2[N+](=O)[O-])cc1`, the TGI with EKVX NSCLC, in the test with SF-539 CNS, in the test with TK-10 renal, in the test on HCT-15 colon, in the test on MOLT-4 leukemia and with SK-MEL-2 melanoma was above 100 µM in each case. Moreover, the TGI with HT29 colon worked out at 59.9 µM.

On to `CCN(CCCl)c1ccc(NC(=O)c2cc(C(=O)NCCN(C)C)cc(C(=O)Nc3ccc(N(CC)CCCl)cc3)c2)cc1`, for which the TGI in the test on SF-539 CNS was 12.3 µM; in the test on T-47D breast, 53.9 µM; in the test with TK-10 renal it was 38 µM; in the test with HCT-15 colon it was above 100 µM; in the test with MOLT-4 leukemia it was 5.99 µM; with SK-MEL-2 melanoma, 44.1 µM. For the same molecule, the values for the TGI in the test on NCI/ADR-RES ovarian, in the test with HT29 colon and in the test with MDA-MB-435 were above 100 µM, 11.8 µM and 33.9 µM, respectively.

`CCCCCCCCCCCCCCCC(=O)OCC(COP(=O)(O)OCCNC(=O)CCSSc1ccccn1)OC(=O)CCCCCCCCCCCCCCC` (stereo unspecified): the TGI with EKVX NSCLC, in the test on SF-539 CNS, in the test with T-47D breast, in the test on HCT-15 colon, in the test with MOLT-4 leukemia and with SK-MEL-2 melanoma was above 100 µM throughout. The TGI with NCI/ADR-RES ovarian, with HT29 colon and in the test with MDA-MB-435 was above 100 µM throughout.

`O=C(c1ccccc1)n1c2ccc(Br)cc2c2nc3ccccc3nc21`: the TGI with EKVX NSCLC, in the test on SF-539 CNS, in the test on TK-10 renal, in the test on HCT-15 colon, in the test on MOLT-4 leukemia and with SK-MEL-2 melanoma was above 100 µM each time. Also, the TGI in the test with NCI/ADR-RES ovarian, in the test on HT29 colon and with MDA-MB-435 was above 100 µM throughout.

For the molecule `COc1cc(O)c2c(=O)c(O)c(-c3ccc(O)c(O)c3)oc2c1`, the TGI in the test with EKVX NSCLC was above 100 µM; in the test with T-47D breast it was above 100 µM; in the test with TK-10 renal, 63.1 µM; with HCT-15 colon, above 100 µM; in the test with MOLT-4 leukemia it was above 100 µM; with NCI/ADR-RES ovarian it was 32.9 µM. Besides, the TGI with HT29 colon is 48.4 µM; with MDA-MB-435 it was 85.5 µM.

`Cn1c(=O)c(C#N)c(O)c2cc3ccccc3nc21`: the TGI with EKVX NSCLC, in the test with SF-539 CNS, in the test on TK-10 renal, with HCT-15 colon, in the test with MOLT-4 leukemia and with SK-MEL-2 melanoma was above 100 µM in each case.

As for `CCCCCNC(=O)OC1CCn2c1nc1c2C(=O)C(C)=C(N2CC2)C1=O` (stereo unspecified), the TGI in the test with SF-539 CNS was determined as 5.33 µM; in the test with T-47D breast it was 7.16 µM; in the test with TK-10 renal, 12.5 µM; in the test on HCT-15 colon, 4.45 µM; in the test on MOLT-4 leukemia, 43.8 µM; in the test with SK-MEL-2 melanoma it was 3.7 µM. In addition, the values for the TGI in the test with NCI/ADR-RES ovarian, with HT29 colon and with MDA-MB-435 were 10.4 µM, 2.77 µM and 3.13 µM, respectively.

Turning to `N=c1sc(N2CCOCC2)nn1CC(=O)c1ccccc1`, the TGI in the test on EKVX NSCLC, in the test with T-47D breast, in the test with TK-10 renal, in the test with HCT-15 colon, with MOLT-4 leukemia and in the test with SK-MEL-2 melanoma was above 100 µM in each case. Besides, the TGI in the test with NCI/ADR-RES ovarian, with HT29 colon and with MDA-MB-435 was above 100 µM throughout.

Turning to `C[C@@H](c1ccccc1)N(CC#N)[C@H]1CCC[C@]1(O)/C=C/c1ccc2c(c1)OCO2`, the TGI with EKVX NSCLC, with T-47D breast, with TK-10 renal, in the test on HCT-15 colon, in the test with MOLT-4 leukemia and with SK-MEL-2 melanoma was above 25 µM throughout. For the same molecule, the TGI in the test with NCI/ADR-RES ovarian, in the test with HT29 colon and in the test on MDA-MB-435 was above 25 µM throughout.
